Consider two compounds from PMC11653257, “Organometallic Half-Sandwich Complexes of 8-Hydroxyquinoline-Derived Mannich Bases with Enhanced Solubility: Targeting Multidrug Resistant Cancer” (Inorganic Chemistry, 2024).

≈ marks a conversion by molar mass, not a printed value. Where two headings read alike, the source gives them in different places. Bounds are passed on as bounds.

The test system of data set [1] is MES-SA/Dx5. As to the kind of experiment: Cytotoxicity in double coculture, MES-SA/Dx5 eGFP. The following applies: for SR = IC50 (MES-SA)/IC50 (MES-SA/Dx5): double coculture.
The target of data set [2] is human serum albumin (HSA), Trp214 / site I (Homo sapiens, UniProt P02768). As to the kind of experiment: HSA Trp214 fluorescence quenching.
Experimental: (§6) Next, spectrofluorometric measurements were also performed to gain insight into the binding interactions that may occur in the hydrophobic binding sites of HSA. Tryptophan (Trp214) quenching experiments were conducted for the complexes (1–4) (for complex (3) see Figure S31) and their ligands). […] To monitor the binding at site II, site marker displacement experiments were performed using dansylglycine (DG).
(§7) Fluorescence measurements were carried out on a Fluoromax (Horiba Jobin Yvon, Longjumeau, France) spectrofluorometer using a 1 cm × 1 cm quartz cuvette. […] Excitation wavelengths were 295 nm for Trp-214 quenching and 340 nm for the DG displacement studies. The calculated conditional stability constants for HSA–complex species were obtained using the computer program HypSpec.[64] Calculations always were based on data obtained from at least two independent measurements.
Data set [3] in a line: n-octanol/water distribution coefficient (shake-flask). Format: physicochemical. Particulars: pH 7.4. The procedure:
The exchange of the coligand (H2O/Cl^–) changes the overall charge of the complex, thus affecting lipophilicity. […] The traditional shake-flask method was used to obtain distribution coefficients of the ligands as well as of the complexes in n-octanol/buffered aqueous solution (20 mM phosphate, pH = 7.4) at different chloride ion concentrations (4, 24, and 100 mM) using UV–vis spectrophotometry (Agilent Cary 8454 diode array spectrophotometer, Santa Clara, CA, USA) for the analysis. The compounds were dissolved in buffered aqueous solutions previously saturated with n-octanol. Then the aqueous and n-octanol phases were gently mixed in different volume ratios (using 1:60 for the ligands, 1:1 for the RhCp* and 1:2 for the RuCym complexes ratios of n-octanol to buffered aqueous solution volume) for 4 h, followed by phase separation. Then the UV–vis spectrum of the aqueous or n-octanol phase was recorded and compared to the reference spectrum. Stock solutions were made in the aqueous phase, and distribution coefficients (DpH) were calculated by the following equation: [drawing 3]

For data set [4], the system named is Escherichia coli (ATCC 25922). As to the kind of experiment: Antibacterial MIC, E. coli. Particulars: Mueller Hinton Broth, 37 °C, 18 h. Format: cell-based. On the procedure: (§1) Escherichia coli (ATCC 25922) was used as Gram-negative strain and Staphylococcus aureus (ATCC 25923, methicillin-resistant (MRSA) ATCC 43300) strains were applied as Gram-positive bacterial cultures in the experiments. MIC values of the compounds were determined in 96-well plates based on the Clinical and Laboratory Standard Institute guidelines (CLSI guidelines).[76] The stock solutions of the compounds (same as those used for cytotoxicity experiments) were diluted in 100 μL of Mueller Hinton Broth. Then, 10^–4 dilution of an overnight bacterial culture in 100 μL of medium was added to each well, with the exception of the medium control wells.

For data set [5], the system named is Staphylococcus aureus (ATCC 25923). As to the kind of experiment: Antibacterial MIC, S. aureus. The class given is cell-based. The following applies: Mueller Hinton Broth, 37 °C, 18 h. On the procedure:
as §1

For data set [6], the system named is MES-SA. As to the kind of experiment: Cytotoxicity in double coculture, MES-SA mCherry. The following applies: read-out: IC50 MES-SA; double coculture with MES-SA/Dx5; 144 h; without TQ.
Experimental: Therefore, the novel half-sandwich complexes (1–4) and their corresponding ligands were tested against a coculture of MES-SA and MES-SA/Dx5 cells expressing the fluorescent proteins mCherry or eGFP, respectively.[62]
MES-SA/B1 is a human MDR1-transfected derivative of MES-SA, and MES-SA mCherry, MES-SA/B1 mOrange, and MES-SA/Dx5 eGFP were engineered to stably express the respective fluorescent proteins previously.[62] Cells were kept in culture medium (DMEM) supplemented with 10% fetal bovine serum, 2 mM L-glutamine, 100 units/mL penicillin, and 100 μg/mL streptomycin (Thermo Fisher). One week before use, MES-SA/Dx5 eGFP cells were treated with 0.5 μM doxorubicin to ensure ABCB1/P-gp expression.
The tested compounds were dissolved in 50% (v/v) DMSO/PBS’ buffer to prepare 5–10 mM stock solutions, which were diluted in complete culture medium. Constitutive expression of the fluorescent proteins allowed multiplexing in cytotoxicity experiments.[62] […] Serial dilutions of the compounds were added 24 h after seeding. To address the effect of P-gp function, TQ was added at a nontoxic concentration (0.4 μM) 15 min before the test compounds. […] IC50 values and standard deviation were calculated from average pIC50 values from at least 3 independent measurements.
Data set [7] can be described thus: pKa of in situ prepared complexes by pH-potentiometry. The class given is physicochemical. Particulars: I = 0.20 M KNO3. The text has this: (§2) The results, shown in Table 2, indicate good agreement between the data obtained by the different methods. It should be noted that these processes show overlap in all cases, and therefore, the assignment of the pKa values to the given moieties cannot be made reliably. However, by comparing the spectral changes with those observed for HQ and other simple derivatives,[25] it can be concluded that the lower pKa likely belongs to the deprotonation of the aqua coligand.
The pH-potentiometric measurements were carried out at 25.0 ± 0.1 °C in water in the pH range between 2.0 and 11.5 and at a constant ionic strength of 0.20 M KNO3. The titrations were performed in a carbonate-free KOH solution (0.20 M). The exact concentrations of the HNO3 and KOH solutions were determined by pH-potentiometric titrations. An Orion 710A pH-meter equipped with a Metrohm combined electrode (type 6.0234.100) and a Metrohm 665 Dosimat buret were used for this purpose. […] The average water ionization constant, pKw, was determined as 13.76 ± 0.01, which is in good agreement with the literature data.[67] The initial volume of the samples was 10.0 mL. […] Samples were degassed by bubbling purified argon through them for about 10 min prior to the measurements, and the inert gas was also passed over the solutions during the titrations. The computer program Hyperquad2013[64] was utilized to establish the stoichiometry of the species and to calculate the equilibrium constants.

Data set [8] deals with methicillin-resistant S. aureus (MRSA) ATCC 43300. As to the kind of experiment: Antibacterial MIC, MRSA. The class given is cell-based, Staphylococcus aureus. The following applies: Mueller Hinton Broth, 37 °C, 18 h. On the procedure:
as §1

Data set [9] in a line: pKa of in situ prepared complexes by UV–vis titration. Format: physicochemical. The following applies: 1:1 system, absence of chloride, I = 0.20 M KNO3. The text has this: The UV–vis spectra of the complexes prepared in situ were then followed at different pH values in the absence of chloride ions. No spectral changes were observed between pH = 2–6.3 (RuCym) or 7.5 (RhCp*), indicating high solution stability in both cases; however, the changes were significant in the basic pH range (Figure S22). In the case of RuCym complexes, two overlapping processes associated with the deprotonation of the coordinated water molecule and the noncoordinated Npyr/pipH^+ moiety were observed. […] The pKa values determined for these processes are shown in Table 2 and Figure S23 together with the values obtained for complexes formed with the amino acid hybrids HQCl-D-Pro and HQCl-D-hPro (Chart 2) for comparison.[26]
(§3) An Agilent Cary 8454 diode array spectrophotometer was utilized to obtain UV–vis spectra in the wavelength range 190–1100 nm. The path length (l) was 1 or 2 cm in most cases (the actual l is always indicated in the legends of the figures). The concentrations of the ligands and complexes were between 36 and 100 μM. The ligands were titrated in the presence of 10 equiv of EDTA. Individual samples contained 0–37 μM HSA, 0–206 μM MIM, 0–759 μM AHA, or 0–733 μM FHA. Spectra were always background and baseline corrected. The computer program HypSpec[64] was used to obtain stability constants.

The nature of data set [10]: H2O/Cl– coligand exchange by UV–vis titration with chloride ions. Particulars: RuCym complexes titrated at pH 6.0. The class given is physicochemical. The procedure:
When the isolated complexes (1–4) are dissolved in water, their chlorido coligand can be replaced by water, or vice versa in the aqua complexes [M(arene)(HL)(H2O)]^2+, the H2O → Cl^– exchange process can take place in the presence of chloride ions. The chloride ion affinity of the complexes was also investigated by UV–vis spectrophotometry. RhCp* and RuCym complexes were titrated with chloride ions at pH 7.4 and 6.0, respectively. For this experiment, pH values were chosen at which the formation of the mixed hydroxido species is negligible. A representative spectrum series for complex (4) is shown in Figure S27, and the calculated conditional exchange constants (logK’ (H2O/Cl^–)) are given in Table 2 and in Figure S23. […] The complexes of the amino acid hybrids HQCl-D-Pro and HQCl-D-hPro have lower logK’ (H2O/Cl^–) constants most likely due to the repulsive effect of the nearby COO^– group.[26]

Data set [11] in a line: pKa of in situ prepared complexes by 1H NMR titration. Format: physicochemical. Particulars: 1:1 system, I = 0.20 M KNO3.
From the text: as §2
(§4) Bruker Avance III HD Ascend 500 Plus instrument (Billerica, MA, USA) was used for NMR studies. ^1H NMR spectroscopic measurements were carried out with a WATERGATE water suppression pulse scheme in the presence of 10% (v/v) D2O in most cases. DSS internal standard was added to samples to obtain reference peaks. ^1H NMR titrations were carried out in the presence of 0.20 M KNO3. The computer program HypSpec[64] was used to obtain equilibrium constants.

Data set [12] deals with human serum albumin (HSA), site II (Homo sapiens, UniProt P02768). As to the kind of experiment: HSA dansylglycine (DG) site marker displacement.
Experimental: as §6, §7
For data set [13], the system named is Colo320. As to the kind of experiment: Cytotoxicity, Colo320. Format: cell-based, human. The following applies: this work. The source says:
Supplementary Information
(11 pictures or pasted objects on this page, not shown here)

Data set [14] in a line: pKa of the ligands by 1H NMR titration. The class given is physicochemical. Particulars: 0.20 M KNO3 with 10% (v/v) D2O, I = 0.20 M KNO3, 25.0 °C, read-out: pKa (OH). On the procedure: (§5) Physico-chemical properties such as aqueous solubility, lipophilicity, and the actual protonation state at a given pH are known to influence the pharmacokinetic behavior of a drug.
as §4

Data set [15] deals with A431. On the set-up: method as in earlier work. Particulars: monoculture, 72 h, PrestoBlue; ref SI3; cited from earlier work.
Data set [16] has as its system MES-SA. Particulars: monoculture, PrestoBlue; ref SI3; cited from earlier work.
Data set [17] has as its system MES-SA/Dx5. The following applies: monoculture, ref SI3, cited from earlier work.
Data set [18] can be described thus: Thermodynamic aqueous solubility at pH 7.4. Format: physicochemical. The following applies: 10 mM HEPES buffer, thermodynamic from solid, pH 7.4 (10 mM HEPES), 25.0 °C, read-out: thermodynamic aqueous solubility S7.4. On the procedure: The concentration of the compounds was determined by UV–vis spectrophotometry. For calibration, stock solutions of the compounds were used with known concentrations dissolved in 100% DMSO, 75% DMSO, and 50% (v/v) DMSO/buffered aqueous solutions.

Data set [19] is described as follows: pKa of the ligands by UV–vis titration. The class given is physicochemical. Particulars: for pKa: 0.20 M KNO3, UV–vis, I = 0.20 M KNO3, 10 equiv. EDTA. On the procedure:
as §5, §3

Data set [20] deals with A431-B1. On the set-up: method as in earlier work. Particulars: monoculture, ref SI3, cited from earlier work.
[21] abbreviates: pH 7.4, based on the pKa values.

Chain of human serum albumin (HSA), site II (P02768 25-609): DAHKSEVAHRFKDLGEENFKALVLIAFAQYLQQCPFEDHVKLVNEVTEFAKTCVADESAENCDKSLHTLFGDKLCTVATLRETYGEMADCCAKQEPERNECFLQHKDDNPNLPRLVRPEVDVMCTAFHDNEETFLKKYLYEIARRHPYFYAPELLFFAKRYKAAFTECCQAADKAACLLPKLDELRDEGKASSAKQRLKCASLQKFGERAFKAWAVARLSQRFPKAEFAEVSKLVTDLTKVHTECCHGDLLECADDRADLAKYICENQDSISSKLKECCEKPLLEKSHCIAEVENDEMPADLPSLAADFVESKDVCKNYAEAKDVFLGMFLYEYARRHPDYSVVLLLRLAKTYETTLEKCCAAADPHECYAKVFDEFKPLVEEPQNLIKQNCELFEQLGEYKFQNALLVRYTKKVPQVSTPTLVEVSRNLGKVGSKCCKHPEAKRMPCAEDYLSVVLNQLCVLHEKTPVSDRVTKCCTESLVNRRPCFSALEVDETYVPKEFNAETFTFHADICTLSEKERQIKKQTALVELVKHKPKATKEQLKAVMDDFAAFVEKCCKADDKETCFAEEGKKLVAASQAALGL
Chain of human serum albumin (HSA), Trp214 / site I (P02768 25-609): as above

[RuCym(HQCl-Pip)Cl]Cl [(4)]: the “SR = IC50 (MES-SA)/IC50 (MES-SA/Dx5)” value is 0.2 in data set [1] (+ 0.4 μM tariquidar (TQ)) and 1.8 in data set [1] (without TQ). Further, the IC50 in [1] (read-out: IC50 MES-SA/Dx5, double coculture with MES-SA, 144 h, without TQ) worked out at 1.92 µM; in [6] it was 3.46 µM. Moreover, the “logK’(quenching)” value in [2] (1 μM HSA, λEX = 295 nm (Trp-214), pH 7.4 (PBS’), […], 24 h) was found to be 5.4 ± 0.2. The values for the logD7.4 entry in data set [3] (c(Cl–) = 4 mM), in data set [3] (c(Cl–) = 24 mM) and in data set [3] (c(Cl–) = 100 mM) were “+0.35 ± 0.02”, “+0.72 ± 0.02” and “+0.89 ± 0.02”, respectively. Further, the MIC in [4], in [5] and in [8] was > 100 µM throughout. In addition, the “pKa (H2O)” value in data set [7] is listed as 8.43 ± 0.08; in data set [9], 8.39 ± 0.10; in data set [11] it was 8.50 ± 0.02. The “pKa (Npyr/pipH+)” value is listed as 10.07 ± 0.07 in data set [7], 10.06 ± 0.05 in data set [9] and 10.19 ± 0.02 in data set [11]. Besides, the “logK’ (H2O/Cl–)” value in data set [10] was 1.78 ± 0.02. Moreover, the “logK’(DG)” value in data set [12] (cHSA = cDG = 1 μM, λEX = 335 nm (DG), pH 7.4 (PBS’), […], 24 h) was determined as 5.3 ± 0.1.

`Oc1c(CN2CCCC2)cc(Cl)c2cccnc12` [HQCl-pyr, 5-chloro-7-(pyrrolidin-1-ylmethyl)quinolin-8-ol]: the values for the Kd in [2] and in [12] were 25.1 µM and 12.6 µM, respectively. Moreover, in [3] (n-octanol/buffered aqueous solution, n-octanol/H2O, read-out: log D7.4), the logD at 4 h came out at 1.83. Also, the “SR (Colo205 / Colo320)” value in data set [13] is reported as 2.0. Besides, the MIC was 50 µM (≈ 13.1 µg/mL) in [4] (Escherichia coli, ATCC25922); 50 µM (≈ 13.1 µg/mL) in data set [5] (Staphylococcus aureus, ATCC25923); 50 µM (≈ 13.1 µg/mL) in data set [8] (Staphylococcus aureus). Further, the pKa in data set [14] is 7.65 ± 0.02; in data set [19] (read-out: pKa (Npyr/pipH+)), 11.36 ± 0.1; in [19] (read-out: pKa (NqH+)), < 2; in data set [19] (read-out: pKa (OH)) it was 7.53 ± 0.05. Moreover, the IC50 in data set [15] is 7.45 ± 0.15 µM; in data set [16] it was 3.46 ± 0.51 µM; in data set [17] (PrestoBlue) it was 0.3 ± 0.06 µM; in [20] (72 h, PrestoBlue), 1.97 ± 0.25 µM. Besides, the “SR (MES-SA / MES-SA/Dx5)” value in data set [17] (+ 1 µM TQ) is listed as 1.35; in [17] it was 11.53. In addition, the thermodynamic solubility in [18] is 516 ± 2 µM (≈ 136 µg/mL). Also, the “fraction of H2L+” value in [19] (setting [21]) was found to be 51%. The “fraction of HL” value in [19] (setting [21]) was found to be 49%. For the same compound, the “SR (A431 / A431-B1)” value in data set [20] is given as 3.79.
